Results taken from ChEMBL document CHEMBL5649169 (ChemMedChem, 2018).

Assays:
[1] = biological target: Insulin receptor (Homo sapiens) (UniProt P06213)
[2] = biological target: Translation initiation factor eIF2B subunit gamma (Homo sapiens) (UniProt Q9NR50)
[3] = biological target: Calcium/calmodulin-dependent protein kinase kinase 2 (Homo sapiens) (UniProt Q96RR4)
[4] = biological target: Small ribosomal subunit protein uS10 (Homo sapiens) (UniProt P60866)
Lamin-B2 (Homo sapiens) = Lamin-B2 (Homo sapiens) (UniProt Q03252)
[5] = biological target: Host cell factor 1 (Homo sapiens) (UniProt P51610)
[6] = biological target: Reticulon-4 (Homo sapiens) (UniProt Q9NQC3)
Sequence of Reticulon-4 (Homo sapiens) (Q9NQC3 whole entry): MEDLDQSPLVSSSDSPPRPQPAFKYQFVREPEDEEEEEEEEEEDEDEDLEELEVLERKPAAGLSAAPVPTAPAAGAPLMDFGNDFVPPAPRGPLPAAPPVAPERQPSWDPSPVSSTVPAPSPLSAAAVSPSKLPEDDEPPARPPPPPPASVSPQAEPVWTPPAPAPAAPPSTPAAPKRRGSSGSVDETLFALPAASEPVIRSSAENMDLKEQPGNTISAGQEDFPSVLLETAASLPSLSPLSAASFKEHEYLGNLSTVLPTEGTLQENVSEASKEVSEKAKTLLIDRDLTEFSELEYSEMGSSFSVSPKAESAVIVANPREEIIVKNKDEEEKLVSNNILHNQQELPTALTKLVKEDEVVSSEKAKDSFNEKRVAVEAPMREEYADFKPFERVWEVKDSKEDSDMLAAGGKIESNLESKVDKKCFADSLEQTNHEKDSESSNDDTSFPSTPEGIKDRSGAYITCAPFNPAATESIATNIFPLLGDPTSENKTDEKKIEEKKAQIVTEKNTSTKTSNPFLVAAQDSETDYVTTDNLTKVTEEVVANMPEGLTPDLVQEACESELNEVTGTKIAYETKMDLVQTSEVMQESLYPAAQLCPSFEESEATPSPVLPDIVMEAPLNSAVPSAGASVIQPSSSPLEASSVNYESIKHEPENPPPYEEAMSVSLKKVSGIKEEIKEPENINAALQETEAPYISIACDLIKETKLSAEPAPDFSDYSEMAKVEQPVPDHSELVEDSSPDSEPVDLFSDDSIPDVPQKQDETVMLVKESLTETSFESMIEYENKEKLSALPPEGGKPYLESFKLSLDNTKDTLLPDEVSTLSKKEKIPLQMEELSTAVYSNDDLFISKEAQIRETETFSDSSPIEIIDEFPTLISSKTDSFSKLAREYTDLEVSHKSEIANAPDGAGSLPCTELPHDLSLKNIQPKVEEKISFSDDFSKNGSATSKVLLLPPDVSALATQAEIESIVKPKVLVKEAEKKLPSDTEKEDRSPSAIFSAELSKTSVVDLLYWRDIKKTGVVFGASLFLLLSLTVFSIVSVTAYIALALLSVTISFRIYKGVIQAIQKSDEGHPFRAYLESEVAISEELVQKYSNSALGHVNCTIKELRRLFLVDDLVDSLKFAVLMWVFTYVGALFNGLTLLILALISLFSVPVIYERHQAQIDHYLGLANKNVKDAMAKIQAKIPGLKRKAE

[7] = biological target: Peroxisomal acyl-coenzyme A oxidase 1 (Homo sapiens) (UniProt Q15067)
[8] = biological target: Ribosome-binding protein 1 (Homo sapiens) (UniProt Q9P2E9)
[9] = biological target: cAMP-dependent protein kinase type II-alpha regulatory subunit (Homo sapiens) (UniProt P13861)
[10] = biological target: Casein kinase I isoform delta (Homo sapiens) (UniProt P48730)
[11] = biological target: Transcription elongation regulator 1 (Homo sapiens) (UniProt O14776)
[12] = biological target: Mitogen-activated protein kinase kinase kinase kinase 3 (Homo sapiens) (UniProt Q8IVH8)
Sequence of Mitogen-activated protein kinase kinase kinase kinase 3 (Homo sapiens) (Q8IVH8 whole entry): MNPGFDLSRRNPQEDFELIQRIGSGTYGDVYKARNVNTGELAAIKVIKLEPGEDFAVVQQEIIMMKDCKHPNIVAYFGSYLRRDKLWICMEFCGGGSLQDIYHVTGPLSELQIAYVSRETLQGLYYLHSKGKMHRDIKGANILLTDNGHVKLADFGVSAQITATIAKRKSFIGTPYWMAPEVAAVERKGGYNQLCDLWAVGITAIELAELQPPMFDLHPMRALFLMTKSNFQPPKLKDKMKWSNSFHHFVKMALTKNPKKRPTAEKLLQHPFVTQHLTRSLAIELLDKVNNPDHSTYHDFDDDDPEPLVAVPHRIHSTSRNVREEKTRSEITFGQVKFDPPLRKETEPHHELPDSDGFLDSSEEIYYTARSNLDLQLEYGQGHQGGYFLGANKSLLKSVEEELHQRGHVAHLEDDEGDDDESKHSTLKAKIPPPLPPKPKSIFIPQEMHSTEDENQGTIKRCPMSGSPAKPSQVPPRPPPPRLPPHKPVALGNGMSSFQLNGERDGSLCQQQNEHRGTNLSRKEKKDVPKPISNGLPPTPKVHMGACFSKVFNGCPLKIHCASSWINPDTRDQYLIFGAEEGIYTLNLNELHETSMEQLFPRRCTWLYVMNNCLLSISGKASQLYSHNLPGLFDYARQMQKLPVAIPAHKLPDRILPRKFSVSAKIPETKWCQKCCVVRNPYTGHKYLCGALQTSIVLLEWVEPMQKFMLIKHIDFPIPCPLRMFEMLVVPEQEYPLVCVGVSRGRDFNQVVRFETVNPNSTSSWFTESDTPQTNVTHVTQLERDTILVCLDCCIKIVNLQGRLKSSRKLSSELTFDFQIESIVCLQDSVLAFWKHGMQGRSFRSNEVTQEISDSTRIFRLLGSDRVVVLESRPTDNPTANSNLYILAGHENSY

[13] = biological target: Junction plakoglobin (Homo sapiens) (UniProt P14923)
Sequence of Junction plakoglobin (Homo sapiens) (P14923 whole entry, the tested form may be a part): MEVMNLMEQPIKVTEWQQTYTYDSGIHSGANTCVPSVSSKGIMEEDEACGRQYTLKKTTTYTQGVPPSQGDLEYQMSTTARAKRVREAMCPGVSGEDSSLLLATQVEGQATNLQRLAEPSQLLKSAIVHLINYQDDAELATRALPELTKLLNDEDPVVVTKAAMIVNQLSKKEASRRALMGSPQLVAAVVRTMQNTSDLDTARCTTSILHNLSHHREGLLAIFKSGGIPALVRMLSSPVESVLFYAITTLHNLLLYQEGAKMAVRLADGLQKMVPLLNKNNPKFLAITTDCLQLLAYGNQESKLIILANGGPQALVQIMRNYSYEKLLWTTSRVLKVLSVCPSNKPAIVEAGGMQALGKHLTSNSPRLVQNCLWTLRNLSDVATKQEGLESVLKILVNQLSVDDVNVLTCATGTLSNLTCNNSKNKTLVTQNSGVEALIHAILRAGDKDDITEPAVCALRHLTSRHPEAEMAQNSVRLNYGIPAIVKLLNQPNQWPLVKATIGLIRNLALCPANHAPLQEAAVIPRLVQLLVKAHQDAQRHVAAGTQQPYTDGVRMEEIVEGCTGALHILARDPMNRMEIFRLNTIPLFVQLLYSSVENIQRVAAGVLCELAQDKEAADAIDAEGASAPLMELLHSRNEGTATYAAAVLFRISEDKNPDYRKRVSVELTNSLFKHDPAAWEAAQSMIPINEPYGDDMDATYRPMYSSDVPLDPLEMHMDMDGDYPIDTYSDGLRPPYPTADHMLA

[14] = biological target: SUN domain-containing protein 2 (Homo sapiens) (UniProt Q9UH99)
[15] = biological target: Zona pellucida sperm-binding protein 1 (Homo sapiens) (UniProt P60852)
[16] = biological target: Transcriptional repressor p66-alpha (Homo sapiens) (UniProt Q86YP4)
[17] = biological target: Protein cholesin (Homo sapiens) (UniProt Q9BRJ6)
Sequence of Protein cholesin (Homo sapiens) (Q9BRJ6 whole entry): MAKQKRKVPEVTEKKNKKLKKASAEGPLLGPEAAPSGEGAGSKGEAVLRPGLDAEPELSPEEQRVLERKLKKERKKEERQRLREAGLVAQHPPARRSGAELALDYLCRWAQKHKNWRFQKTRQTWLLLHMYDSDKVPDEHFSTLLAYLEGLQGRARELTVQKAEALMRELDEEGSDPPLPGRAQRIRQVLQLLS

[18] = biological target: 26S proteasome non-ATPase regulatory subunit 7 (Homo sapiens) (UniProt P51665)
[19] = biological target: General transcription and DNA repair factor IIH helicase subunit XPD (Homo sapiens) (UniProt P18074)
[20] = biological target: Maternal embryonic leucine zipper kinase (Homo sapiens) (UniProt Q14680)
Sequence of Maternal embryonic leucine zipper kinase (Homo sapiens) (Q14680 whole entry, looked up): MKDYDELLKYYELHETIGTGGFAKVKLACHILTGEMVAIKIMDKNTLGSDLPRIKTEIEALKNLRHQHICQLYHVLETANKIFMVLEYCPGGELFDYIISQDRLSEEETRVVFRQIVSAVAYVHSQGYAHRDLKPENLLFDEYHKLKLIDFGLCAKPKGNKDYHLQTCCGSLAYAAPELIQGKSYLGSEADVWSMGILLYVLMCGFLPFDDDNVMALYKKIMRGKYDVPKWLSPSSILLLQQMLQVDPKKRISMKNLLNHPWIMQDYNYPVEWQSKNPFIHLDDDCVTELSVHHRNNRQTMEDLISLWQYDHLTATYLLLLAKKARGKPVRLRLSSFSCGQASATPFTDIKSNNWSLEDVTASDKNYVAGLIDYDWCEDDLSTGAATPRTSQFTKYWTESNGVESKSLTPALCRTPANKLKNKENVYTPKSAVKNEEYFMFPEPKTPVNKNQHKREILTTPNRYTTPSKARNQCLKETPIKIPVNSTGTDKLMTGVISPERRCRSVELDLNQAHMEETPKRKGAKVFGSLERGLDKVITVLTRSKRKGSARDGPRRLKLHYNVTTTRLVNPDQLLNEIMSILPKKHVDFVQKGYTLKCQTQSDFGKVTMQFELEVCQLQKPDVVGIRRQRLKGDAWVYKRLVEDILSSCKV

[21] = biological target: Deoxycytidine kinase (Homo sapiens) (UniProt P27707)
Sequence of Deoxycytidine kinase (Homo sapiens) (P27707 whole entry, looked up): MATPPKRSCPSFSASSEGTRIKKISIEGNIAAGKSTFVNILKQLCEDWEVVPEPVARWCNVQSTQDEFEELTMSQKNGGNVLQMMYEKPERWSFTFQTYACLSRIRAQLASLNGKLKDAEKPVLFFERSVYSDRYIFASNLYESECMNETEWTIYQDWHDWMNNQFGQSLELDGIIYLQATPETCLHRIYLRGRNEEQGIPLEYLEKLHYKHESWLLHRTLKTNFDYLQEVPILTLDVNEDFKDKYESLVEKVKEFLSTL

[22] = biological target: Ubiquitin-associated protein 2-like (Homo sapiens) (UniProt Q14157)
[23] = biological target: Calcium/calmodulin-dependent protein kinase type II subunit beta (Homo sapiens) (UniProt Q13554)
Sequence of Calcium/calmodulin-dependent protein kinase type II subunit beta (Homo sapiens) (Q13554 whole entry): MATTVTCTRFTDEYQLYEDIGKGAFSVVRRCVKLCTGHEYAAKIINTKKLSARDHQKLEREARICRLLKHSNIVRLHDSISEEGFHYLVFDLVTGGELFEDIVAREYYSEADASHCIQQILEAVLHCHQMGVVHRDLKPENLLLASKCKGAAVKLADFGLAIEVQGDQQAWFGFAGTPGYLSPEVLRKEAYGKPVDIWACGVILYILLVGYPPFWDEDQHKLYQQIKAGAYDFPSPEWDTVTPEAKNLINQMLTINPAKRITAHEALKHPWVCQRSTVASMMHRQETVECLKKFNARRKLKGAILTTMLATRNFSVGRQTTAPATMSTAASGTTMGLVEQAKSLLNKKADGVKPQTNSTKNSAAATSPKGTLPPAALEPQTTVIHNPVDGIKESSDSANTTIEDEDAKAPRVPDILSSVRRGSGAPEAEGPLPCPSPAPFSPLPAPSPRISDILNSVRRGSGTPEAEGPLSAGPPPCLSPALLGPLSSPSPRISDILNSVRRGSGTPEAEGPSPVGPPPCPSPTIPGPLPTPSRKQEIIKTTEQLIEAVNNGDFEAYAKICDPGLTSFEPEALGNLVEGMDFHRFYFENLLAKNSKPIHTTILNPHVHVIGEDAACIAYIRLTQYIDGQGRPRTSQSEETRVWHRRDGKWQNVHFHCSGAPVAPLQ

[24] = biological target: 2,4-dienoyl-CoA reductase [(3E)-enoyl-CoA-producing], mitochondrial (Homo sapiens) (UniProt Q16698)
[25] = biological target: Rab-like protein 3 (Homo sapiens) (UniProt Q5HYI8)
[26] = biological target: T-complex protein 1 subunit theta (Homo sapiens) (UniProt P50990)
[27] = biological target: Lamina-associated polypeptide 2, isoform alpha (Homo sapiens) (UniProt P42166)
[28] = biological target: eIF5-mimic protein 2 (Homo sapiens) (UniProt Q7L1Q6)
Sequence of eIF5-mimic protein 2 (Homo sapiens) (Q7L1Q6 whole entry): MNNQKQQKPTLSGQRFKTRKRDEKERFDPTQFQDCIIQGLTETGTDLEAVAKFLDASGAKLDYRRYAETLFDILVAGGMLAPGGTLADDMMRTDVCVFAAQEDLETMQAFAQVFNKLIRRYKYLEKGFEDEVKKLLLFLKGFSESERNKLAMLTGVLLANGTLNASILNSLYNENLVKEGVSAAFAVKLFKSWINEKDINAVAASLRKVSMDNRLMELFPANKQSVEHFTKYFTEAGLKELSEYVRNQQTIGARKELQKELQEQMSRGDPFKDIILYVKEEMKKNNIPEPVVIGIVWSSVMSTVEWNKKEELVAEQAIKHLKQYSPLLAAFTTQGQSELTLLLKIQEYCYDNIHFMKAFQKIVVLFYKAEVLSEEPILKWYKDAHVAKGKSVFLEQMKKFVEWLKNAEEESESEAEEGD

[29] = biological target: Mitochondrial carrier homolog 2 (Homo sapiens) (UniProt Q9Y6C9)
[30] = biological target: Deoxynucleoside triphosphate triphosphohydrolase SAMHD1 (Homo sapiens) (UniProt Q9Y3Z3)
[31] = biological target: ATP-citrate synthase (Homo sapiens) (UniProt P53396)
[32] = biological target: T-complex protein 1 subunit epsilon (Homo sapiens) (UniProt P48643)
[33] = biological target: Ran-specific GTPase-activating protein (Homo sapiens) (UniProt P43487)
[34] = biological target: TBC1 domain family member 15 (Homo sapiens) (UniProt Q8TC07)
Ezrin (Homo sapiens) = Ezrin (Homo sapiens) (UniProt P15311)
[35] = biological target: Serine/threonine-protein kinase NLK (Homo sapiens) (UniProt Q9UBE8)
[36] = biological target: AP-3 complex subunit beta-1 (Homo sapiens) (UniProt O00203)
[37] = biological target: Protein salvador homolog 1 (Homo sapiens) (UniProt Q9H4B6)
[38] = biological target: Membrane-bound acylglycerophosphatidylinositol O-acyltransferase MBOAT7 (Homo sapiens) (UniProt Q96N66)
[39] = biological target: RAC-alpha serine/threonine-protein kinase (Homo sapiens) (UniProt P31749)
[40] = biological target: Ubiquitin-like FUBI-ribosomal protein eS30 fusion protein (Homo sapiens) (UniProt P62861)
[41] = biological target: Nuclear pore complex protein Nup205 (Homo sapiens) (UniProt Q92621)
[42] = biological target: EKC/KEOPS complex subunit TP53RK (Homo sapiens) (UniProt Q96S44)
[43] = biological target: Valine--tRNA ligase (Homo sapiens) (UniProt P26640)
Also: assay method not described here.

Cc1ccc(C(=O)Nc2cccc(C(F)(F)F)c2)cc1Nc1nc(-c2cccnc2)nc2c1cnn2C
ED50 [1]: 163 nM
ED50 [2]: 10.3 µM
ED50 [3]: 0.112 µM
ED50 [4]: 371 nM
ED50 (Lamin-B2 (Homo sapiens)): 257 µM
ED50 [5]: 1410 nM
ED50 [6]: 5.31 nM
ED50 [7]: 15.2 µM
ED50 (Homo sapiens): 0.0636 µM
ED50 [8]: 11.3 µM
ED50 [9]: 8.24 µM
ED50 [10]: 10.4 µM
ED50 [11]: 732 µM
ED50 [12]: 20.5 mM
ED50 [13]: 23.1 µM
ED50 [14]: 13.5 µM
ED50 [15]: 2.41 nM
ED50 [16]: 3460 nM
ED50 [17]: 0.0151 µM
ED50 [18]: 4120 nM
ED50 [19]: 0.199 µM
ED50 [20]: 0.0176 µM
ED50 [21]: 5000 nM
ED50 [22]: 13.3 µM
ED50 [23]: 17.4 µM
ED50 [24]: 3.63 µM
ED50 [25]: 4.04 µM
ED50 [26]: 0.0186 µM
ED50 [27]: 3.35 µM
ED50 [28]: 571 nM
ED50 [29]: 27.9 nM
ED50 [30]: 0.00363 µM
ED50 [31]: 12.3 µM
ED50 [32]: 0.216 nM
ED50 [33]: 3.63 µM
ED50 [34]: 0.829 µM
ED50 (Ezrin (Homo sapiens)): 7.29 µM
ED50 [35]: 1.85 nM
ED50 [36]: 558 nM
ED50 [37]: 13.4 µM
ED50 [38]: 3400 nM
ED50 [39]: 33.2 µM
ED50 [40]: 0.562 µM
ED50 [41]: 2260 nM
ED50 [42]: 3470 nM
ED50 [43]: 2390 nM

Cc1ccc(C(=O)Nc2cccc(C(F)(F)F)c2)cc1Nc1nc(-c2cccnc2)nc2nn(C)cc12
ED50 [1]: 8.63 nM
ED50 [2]: 0.332 µM
ED50 [3]: 10.2 µM
ED50 [4]: 3630 nM
ED50 (Lamin-B2 (Homo sapiens)): 1.63 µM
ED50 [5]: 52.3 nM
ED50 [6]: 3550 nM
ED50 [7]: 2.69 µM
ED50 (Homo sapiens): 233 µM
ED50 [8]: 0.277 µM
ED50 [9]: 0.325 µM
ED50 [10]: 0.0638 µM
ED50 [11]: 0.0876 µM
ED50 [12]: 0.0287 mM
ED50 [13]: 12.7 µM
ED50 [14]: 0.111 µM
ED50 [15]: 4250 nM
ED50 [16]: 41 nM
ED50 [17]: 39.4 µM
ED50 [18]: 71.1 nM
ED50 [19]: 21.8 µM
ED50 [20]: 6.57 µM
ED50 [21]: 3.09 nM
ED50 [22]: 14.3 µM
ED50 [23]: 0.0059 µM
ED50 [24]: 10.5 µM
ED50 [25]: 22.5 µM
ED50 [26]: 43.3 µM
ED50 [27]: 6.61 µM
ED50 [28]: 2540 nM
ED50 [29]: 130 nM
ED50 [30]: 12.8 µM
ED50 [31]: 21.4 µM
ED50 [32]: 51.6 nM
ED50 [33]: 8.14 µM
ED50 [34]: 34.9 µM
ED50 (Ezrin (Homo sapiens)): 0.0827 µM
ED50 [35]: 24.2 nM
ED50 [36]: 49 nM
ED50 [37]: 0.356 µM
ED50 [38]: 202 nM
ED50 [39]: 0.216 µM
ED50 [40]: 12.4 µM
ED50 [41]: 1170 nM
ED50 [42]: 485 nM
ED50 [43]: 19.5 nM
